Test results: US20230265116A1, “DEGRADATION OF (EGFR) BY CONJUGATION OF EGFR INHIBITORS WITH E3 LIGASE LIGAND AND METHODS OF USE” (BEIGENE, LTD., priority 2020, published 2023)

How the values were obtained:
Type in all cases: cell-based
[1] = biological target: T1, EGFR L858R/T790M/C797S (BaF3-LTC cells) (Homo sapiens, UniProt P00533, C797S/L858R/T790M); experiment: EGFR degradation HTRF assay, BaF3-LTC cells; details: BaF3-LTC cells; for DC50: EGFR degradation, IC50 (DC50) from curve fit, read-out: DC50(nM) BaF3-LTC; for Dmax: maximum percentage of inhibition (degradation), read-out: Dmax (%) BaF3-LTC
T1 construct: expressed in transfected cells; host or cells: BaF3
Summary of the method: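 Cells treated 16 h at 37 °C, 5% CO2 in medium with 0.2% DMSO; top final concentration 10 uM, 5-fold dilution, 8 doses. Lysates read by HTRF (665/620 nm); degradation % versus DMSO high control, DC50 from four-parameter fit, Dmax as maximal degradation.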

[2] = biological target: T2, EGFR L858R/C797S (BaF3 LC cells) (Homo sapiens, UniProt P00533, C797S/L858R); experiment: EGFR degradation HTRF assay, BaF3 LC cells; details: BaF3 LC, 16h treatment; for Dmax: maximum percentage of degradation, read-out: BaF3 LC Dmax (%); for DC50: read-out: BaF3 LC DC50
T2 construct: expressed in transfected cells; host or cells: BaF3

[3] = system: EGFR Del19/T790M/C797S (H1975-clone #28); experiment: EGFR degradation HTRF assay, H1975-clone #28 DTC cells; details: H1975 # 28 DTC cells; for DC50: EGFR degradation, IC50 (DC50) from curve fit, read-out: DC50(nM) H1975 # 28 DTC; for Dmax (%) H1975 # 28 DTC: maximum percentage of inhibition (degradation)
Summary of the method: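 H1975 clones stably overexpressing mutant EGFR, with endogenous EGFR knocked out by sgRNA and homozygosity confirmed by sequencing, were treated 16h at 37° C. with compounds in 0.2% DMSO (top final 10 uM, 5-fold, 8 doses). Lysates were read by HTRF (665/620 nm); DC50 and Dmax came from fitting % degradation versus DMSO control.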

[4] = system: EGFR Del19/C797S (H1975-clone #23); experiment: EGFR degradation HTRF assay, H1975-clone #23 DC cells; details: 16h treatment; for H1975 #23 DC Dmax (%): maximum percentage of degradation; for DC50: H1975 #23 DC, read-out: H1975 #23 DC DC50
Experimental: H1975-clone #28(Del19/T790M/C797S) and H1975-clone #23(Del19/C797S). EGFR-Del19/T790M/C797S and EGFR-Del19/C797S were stably expressed in H1975 cell lines by lentivirus-mediated over-expression, respectively. The EGFR over-expressed cells then underwent gene knockout, in which the EGFR targeting sgRNA was designed to only target the endogenous EGFR copies and preserve the exogenous EGFR copies. Followed by the gene knockout, the edited H1975 cells were seeded in 96 well plates at the concentration of 1 cell/well, cultured for about 2 weeks to allow single clones formation. The formed clones were screened by DNA sequencing and whole exon sequencing analysis for the desired edition. H1975-clone #28 and H1975-clone #23 were finally confirmed as homozygous Del19/T790M/C797S EGFR and Del19/C797S EGFR clones, respectively.
BaF3 WT(wild type), BaF3-LTC(L858R/T790M/C797S) and BaF3-DTC(Del19/T790M/C797S) cells are treated with compounds diluted in 0.2% DMSO cell culture medium and incubate for 16h, 37° C., 5% CO2, H1975-#36, H1975-#28, H1975-#23 and HCC827 cells are treated with compounds diluted in 0.2% DMSO cell culture medium on day 2, incubate for 16h, 37° C., 5% CO2.the final concentriation of compounds in all assay is start with 10 uM, 5-fold dilution, total 8 doses were included.
After 16h treatment, add HTRF lysis buffer to each well; seal the plate and incubate 1 hour at room temperature on a plate shaker; Once the cells are lysed, 16 μL of cell lysate are transferred to a PE 384-well HTRF detection plate; 4 μL of pre-mixed HTRF antibodies are added to each well; Cover the plate with a plate sealer, spin 1000 rpm for 1 min, Incubate overnight at room temperature; Read on BMG PheraStar with HTRF protocol (337 nm-665 nm-620 nm).
The inhibition (degradation) percentage of the compound was calculated by the following equation: Inhibition percentage of Compound=100-100×(Signal-low control)/(High control-low control), wherein signal=each test compound group
High control=Cell group with added DMSO and without compound, indicating microplate readings without EGFR degradation;
Dmax is the maximum percentage of inhibition (degradation).
The IC50 (DC50) value of a compound can be obtained by fitting the following equation
Y=Bottom+(TOP−Bottom)/(1+((IC50/X)^hillslope))
Wherein, X and Y are known values, and IC50, Hillslope, Top and Bottom are the parameters obtained by fitting with software. Y is the inhibition percentage (calculated from the equation), X is the concentration of the compound; IC50 is the concentration of the compound when the 50% inhibition is reached. The smaller the IC50 value is, the stronger the inhibitory ability of the compound is. Vice versa, the higher the IC50 value is, the weaker the inhibitory ability of the compound is; Hillslope represents the slope of the fitted curve, generally around 1*; Bottom represents the minimum value of the curve obtained by data fitting, which is generally 0%±20%; Top represents the maximum value of the curve obtained by data fitting, which is generally 100%±20%. The experimental data were fitted by calculating and analyzing with Dotmatics data analysis software.

T2 sequence (P00533 25-1210 C797S/L858R): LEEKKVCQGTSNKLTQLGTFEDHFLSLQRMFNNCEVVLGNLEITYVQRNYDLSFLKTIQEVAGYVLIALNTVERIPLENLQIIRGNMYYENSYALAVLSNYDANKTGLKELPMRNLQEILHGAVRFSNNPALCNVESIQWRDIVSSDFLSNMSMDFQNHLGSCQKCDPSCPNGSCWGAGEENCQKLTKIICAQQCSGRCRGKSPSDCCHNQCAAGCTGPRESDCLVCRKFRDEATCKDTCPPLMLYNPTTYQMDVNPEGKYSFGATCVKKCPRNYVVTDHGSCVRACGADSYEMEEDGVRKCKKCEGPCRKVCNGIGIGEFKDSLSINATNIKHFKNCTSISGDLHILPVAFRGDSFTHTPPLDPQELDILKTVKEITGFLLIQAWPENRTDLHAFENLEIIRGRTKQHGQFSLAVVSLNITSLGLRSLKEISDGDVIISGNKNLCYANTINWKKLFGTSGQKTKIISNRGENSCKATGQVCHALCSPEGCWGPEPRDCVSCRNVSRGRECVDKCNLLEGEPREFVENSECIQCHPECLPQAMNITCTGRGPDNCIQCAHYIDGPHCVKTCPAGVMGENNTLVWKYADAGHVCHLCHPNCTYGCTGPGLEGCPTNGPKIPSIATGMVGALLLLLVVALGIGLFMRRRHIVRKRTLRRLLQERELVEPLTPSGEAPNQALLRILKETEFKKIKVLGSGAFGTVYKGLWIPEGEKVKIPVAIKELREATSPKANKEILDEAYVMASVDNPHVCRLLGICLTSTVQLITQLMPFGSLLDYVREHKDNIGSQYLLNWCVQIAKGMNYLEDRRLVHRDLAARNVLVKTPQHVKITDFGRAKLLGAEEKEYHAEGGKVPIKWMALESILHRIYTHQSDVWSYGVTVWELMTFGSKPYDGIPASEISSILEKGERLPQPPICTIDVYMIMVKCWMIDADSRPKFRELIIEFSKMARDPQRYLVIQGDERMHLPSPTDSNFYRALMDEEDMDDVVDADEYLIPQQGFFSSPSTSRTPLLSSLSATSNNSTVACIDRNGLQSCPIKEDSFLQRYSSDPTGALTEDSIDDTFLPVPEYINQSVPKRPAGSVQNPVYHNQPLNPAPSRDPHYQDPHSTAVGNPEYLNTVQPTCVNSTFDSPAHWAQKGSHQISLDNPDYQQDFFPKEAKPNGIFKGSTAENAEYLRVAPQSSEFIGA
T1 sequence (P00533 25-1210 T790M/C797S/L858R): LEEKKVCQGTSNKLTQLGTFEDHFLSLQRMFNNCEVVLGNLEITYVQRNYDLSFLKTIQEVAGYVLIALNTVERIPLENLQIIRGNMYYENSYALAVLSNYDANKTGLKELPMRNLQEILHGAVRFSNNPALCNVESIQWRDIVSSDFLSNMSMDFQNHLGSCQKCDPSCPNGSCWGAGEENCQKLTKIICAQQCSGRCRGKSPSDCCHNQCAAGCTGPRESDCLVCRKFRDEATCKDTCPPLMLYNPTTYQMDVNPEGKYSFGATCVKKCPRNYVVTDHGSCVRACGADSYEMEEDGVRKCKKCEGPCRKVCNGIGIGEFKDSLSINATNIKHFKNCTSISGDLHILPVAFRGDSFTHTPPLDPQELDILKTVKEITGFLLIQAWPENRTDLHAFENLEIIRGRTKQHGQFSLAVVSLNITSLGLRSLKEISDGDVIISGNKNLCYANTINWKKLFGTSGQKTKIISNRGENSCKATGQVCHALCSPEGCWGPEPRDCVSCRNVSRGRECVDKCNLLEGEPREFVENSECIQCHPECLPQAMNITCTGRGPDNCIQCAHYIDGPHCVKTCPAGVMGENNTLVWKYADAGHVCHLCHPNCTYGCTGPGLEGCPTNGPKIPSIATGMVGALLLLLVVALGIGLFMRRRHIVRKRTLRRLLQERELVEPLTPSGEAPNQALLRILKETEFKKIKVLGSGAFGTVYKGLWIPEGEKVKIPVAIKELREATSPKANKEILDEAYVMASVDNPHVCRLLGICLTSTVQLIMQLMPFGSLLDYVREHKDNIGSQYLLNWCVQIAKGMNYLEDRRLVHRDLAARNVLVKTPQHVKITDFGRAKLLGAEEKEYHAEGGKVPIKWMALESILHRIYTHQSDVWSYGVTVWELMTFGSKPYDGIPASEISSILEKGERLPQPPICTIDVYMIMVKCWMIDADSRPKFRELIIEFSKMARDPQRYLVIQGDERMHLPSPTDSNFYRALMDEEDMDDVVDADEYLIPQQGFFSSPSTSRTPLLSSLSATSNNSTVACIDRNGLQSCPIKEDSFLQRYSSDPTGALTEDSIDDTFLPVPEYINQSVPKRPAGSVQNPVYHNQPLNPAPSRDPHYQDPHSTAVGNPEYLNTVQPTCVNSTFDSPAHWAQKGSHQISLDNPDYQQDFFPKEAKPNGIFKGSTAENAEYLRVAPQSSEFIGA

Row | Compound | DC50 [1] | Dmax [1] | Dmax [2] | DC50 [2] | DC50 [3] | DC50 [4] | Dmax (%) H1975 # 28 DTC [3] | H1975 #23 DC Dmax (%) [4]
1 | CCc1cc(Nc2ncc(Br)c(Nc3ccc4nc(NC(=O)C5CC5)ccc4c3P(C)(C)=O)n2)c(OC)cc1N1CCC(N2CCN(C(=O)[C@@H]3CCN(c4cc(F)c([C@H]5CCC(=O)NC5=O)c(F)c4)C3)CC2)CC1 [Example 587, N-(6-((5-bromo-2-((4-(4-(4-((R)-1-(4-((R)-2,6-dioxopiperidin-3-yl)-3,5-difluorophenyl)pyrrolidine-3-carbonyl)piperazin-1-yl)piperidin-1-yl)-5-ethyl-2-methoxyphenyl)amino)pyrimidin-4-yl)amino)-5-(dimethylphosphoryl)quinolin-2-yl)cyclopropanecarboxamide] | 2.19 nM | 89.2% | 87.8% | 14.6 nM | 0.765 nM | 6.14 nM | 87.02% | 87.43%
2 | CCc1cc(Nc2ncc(Br)c(Nc3ccc4nc(C)c(F)cc4c3P(C)(C)=O)n2)c(OC)cc1N1CCC(N2CCN(C(=O)[C@@H]3CCN(c4cc(F)c([C@H]5CCC(=O)NC5=O)c(F)c4)C3)CC2)CC1 [Example 488, (R)-3-(4-((R)-3-(4-(1-(4-((5-bromo-4-((5-(dimethylphosphoryl)-3-fluoro-2-methylquinolin-6-yl)amino)pyrimidin-2-yl)amino)-2-ethyl-5-methoxyphenyl)piperidin-4-yl)piperazine-1-carbonyl)pyrrolidin-1-yl)-2,6-difluorophenyl)piperidine-2,6-dione] | 3.52 nM | – | – | 17.9 nM | 0.97 nM | 2.23 nM | 84.91% | 67.73%
3 | CCc1cc(Nc2ncc(Br)c(Nc3ccc4nc(C)ccc4c3P(C)(C)=O)n2)c(OC)cc1N1CCC(N2CCN(CCc3cccc4c3C(C)(C)C(=O)N4C3CCC(=O)NC3=O)CC2)CC1 (stereo not shown) [Example 514, 3-(4-(2-(4-(1-(4-((5-bromo-4-((5-(dimethylphosphoryl)-2-methylquinolin-6-yl)amino)pyrimidin-2-yl)amino)-2-ethyl-5-methoxyphenyl)piperidin-4-yl)piperazin-1-yl)ethyl)-3,3-dimethyl-2-oxoindolin-1-yl)piperidine-2,6-dione] | 3.51 nM | 94.3% | 94% | 3.51 nM | 0.771 nM | 1.83 nM | 66.48% | 76.66%
4 | CCc1ccc2c(P(C)(C)=O)c(Nc3nc(Nc4cc(CC)c(N5CCC(N6CCN(CCc7ccc8c(oc(=O)n8C8CCC(=O)NC8=O)c7F)CC6)CC5)cc4OC)ncc3Br)ccc2n1 (stereo not shown) [Example 458, 3-(6-(2-(4-(1-(4-((5-bromo-4-((5-(dimethylphosphoryl)-2-ethylquinolin-6-yl)amino)pyrimidin-2-yl)amino)-2-ethyl-5-methoxyphenyl)piperidin-4-yl)piperazin-1-yl)ethyl)-7-fluoro-2-oxobenzo[d]oxazol-3(2H)-yl)piperidine-2,6-dione] | 2.09 nM | 88.3% | 91.5% | 3.29 nM | 0.505 nM | 3.26 nM | 83.62% | 59.65%
5 | CCc1cc(Nc2ncc(Br)c(Nc3ccc4nc(C)c(F)cc4c3P(C)(C)=O)n2)c(OC)cc1N1CCC(N2CCN(C(=O)[C@H]3CN(c4cc(F)c([C@H]5CCC(=O)NC5=O)c(F)c4)CC3(C)C)CC2)CC1 [Example 576, (R)-3-(4-((R)-4-(4-(1-(4-((5-bromo-4-((5-(dimethylphosphoryl)-3-fluoro-2-methylquinolin-6-yl)amino)pyrimidin-2-yl)amino)-2-ethyl-5-methoxyphenyl)piperidin-4-yl)piperazine-1-carbonyl)-3,3-dimethylpyrrolidin-1-yl)-2,6-difluorophenyl)piperidine-2,6-dione] | 12.1 nM | – | – | 15.8 nM | 2.8 nM | 3.59 nM | 81.93% | 77.19%

Further compounds by falling DC50 [1], results first:

Row | DC50 [1] | Dmax [1] | Dmax [2] | DC50 [2] | DC50 [3] | DC50 [4] | Compound | Dmax (%) H1975 # 28 DTC [3] | H1975 #23 DC Dmax (%) [4]
6 | 9.51 nM | – | – | 73.4 nM | 0.616 nM | 12.8 nM | CCOc1cc(N2CCC(N3CCN(CCc4cccc5c4oc(=O)n5C4CCC(=O)NC4=O)CC3)CC2)c(CC)cc1Nc1ncc(Br)c(Nc2ccc3nc(CC)ccc3c2P(C)(C)=O)n1 (stereo not shown) [Example 473, 3-(7-(2-(4-(1-(4-((5-bromo-4-((5-(dimethylphosphoryl)-2-ethylquinolin-6-yl)amino)pyrimidin-2-yl)amino)-5-ethoxy-2-ethylphenyl)piperidin-4-yl)piperazin-1-yl)ethyl)-2-oxobenzo[d]oxazol-3(2H)-yl)piperidine-2,6-dione] | 83.08% | 82.45%
7 | 7.03 nM | 96.4% | 83.5% | 51.8 nM | 1.55 nM | 9.42 nM | CCOc1cc(N2CCC(N3CCN(C(=O)[C@@H]4CCN(c5cc(F)c([C@H]6CCC(=O)NC6=O)c(F)c5)C4)CC3)CC2)c(CC)cc1Nc1ncc(Br)c(Nc2ccc3nc(C)ccc3c2P(C)(C)=O)n1 [Example 531, (R)-3-(4-((R)-3-(4-(1-(4-((5-bromo-4-((5-(dimethylphosphoryl)-2-methylquinolin-6-yl)amino)pyrimidin-2-yl)amino)-5-ethoxy-2-ethylphenyl)piperidin-4-yl)piperazine-1-carbonyl)pyrrolidin-1-yl)-2,6-difluorophenyl)piperidine-2,6-dione] | 74.06% | 53.36%
8 | 1.3 nM | 92.8% | 95.7% | 2.41 nM | 0.2 nM | 0.974 nM | CCc1cc(Nc2ncc(Br)c(Nc3ccc4nc(C)ccc4c3P(C)(C)=O)n2)c(OC)cc1N1CCC(N2CCN(CCc3ccc4c(c3)oc(=O)n4C3CCC(=O)NC3=O)CC2)CC1 (stereo not shown) [Example 490, 3-(6-(2-(4-(1-(4-((5-bromo-4-((5-(dimethylphosphoryl)-2-methylquinolin-6-yl)amino)pyrimidin-2-yl)amino)-2-ethyl-5-methoxyphenyl)piperidin-4-yl)piperazin-1-yl)ethyl)-2-oxobenzo[d]oxazol-3(2H)-yl)piperidine-2,6-dione] | 80.5% | 64.67%
